Experimental data reported in ChEMBL document CHEMBL1134838, “Structure-activity relationships at monoamine transporters and muscarinic receptors for N-substituted-3alpha-(3'-chloro-, 4'-chloro-, and 4',4''-dichloro-substituted-diphenyl)methoxytropanes” (J Med Chem, 2001).

Legend:
[1] = biological target: Sodium-dependent dopamine transporter (Rattus norvegicus, UniProt P23977); experiment: biochemical; assay type: tissue-based, Brain
Description: Binding affinity for dopamine transporter was determined in vitro in rat brain using [3H]WIN-35428 s radioligand

[2] = biological target: Norepinephrine transporter (Rattus norvegicus, UniProt Q9WTR4); experiment: Binding affinity for norepinephrine transporter in rat brain using [3H]-nisoxatine as radioligand; assay type: tissue-based
[3] = biological target: Sodium-dependent serotonin transporter (Rattus norvegicus, UniProt P31652); experiment: Binding affinity for serotonin transporter was determined in vitro in rat brain using [3H]citalopram as radioligand.; assay type: tissue-based
[4] = biological target: T1, Muscarinic acetylcholine receptor M1 (Rattus norvegicus, UniProt P08482); experiment: Binding affinity for muscarinic m1 receptor was determined in vitro in rat brain using [3H]pirenzepine as radioligand.; assay type: tissue-based
T1 sequence (P08482 whole entry): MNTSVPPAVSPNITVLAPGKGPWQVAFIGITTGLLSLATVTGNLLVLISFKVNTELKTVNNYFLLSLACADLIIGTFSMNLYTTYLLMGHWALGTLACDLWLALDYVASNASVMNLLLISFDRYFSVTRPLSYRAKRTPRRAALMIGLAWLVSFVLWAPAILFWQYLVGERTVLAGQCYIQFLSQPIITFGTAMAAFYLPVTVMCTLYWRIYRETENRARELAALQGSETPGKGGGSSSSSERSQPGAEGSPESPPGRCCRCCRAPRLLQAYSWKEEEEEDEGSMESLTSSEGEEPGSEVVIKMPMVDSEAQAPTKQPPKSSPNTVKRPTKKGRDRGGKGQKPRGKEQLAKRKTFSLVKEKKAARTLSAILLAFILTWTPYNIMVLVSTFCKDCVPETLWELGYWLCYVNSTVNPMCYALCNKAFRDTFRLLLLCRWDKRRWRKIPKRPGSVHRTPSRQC

Norepinephrine transporter, sequence (Q9WTR4 whole entry): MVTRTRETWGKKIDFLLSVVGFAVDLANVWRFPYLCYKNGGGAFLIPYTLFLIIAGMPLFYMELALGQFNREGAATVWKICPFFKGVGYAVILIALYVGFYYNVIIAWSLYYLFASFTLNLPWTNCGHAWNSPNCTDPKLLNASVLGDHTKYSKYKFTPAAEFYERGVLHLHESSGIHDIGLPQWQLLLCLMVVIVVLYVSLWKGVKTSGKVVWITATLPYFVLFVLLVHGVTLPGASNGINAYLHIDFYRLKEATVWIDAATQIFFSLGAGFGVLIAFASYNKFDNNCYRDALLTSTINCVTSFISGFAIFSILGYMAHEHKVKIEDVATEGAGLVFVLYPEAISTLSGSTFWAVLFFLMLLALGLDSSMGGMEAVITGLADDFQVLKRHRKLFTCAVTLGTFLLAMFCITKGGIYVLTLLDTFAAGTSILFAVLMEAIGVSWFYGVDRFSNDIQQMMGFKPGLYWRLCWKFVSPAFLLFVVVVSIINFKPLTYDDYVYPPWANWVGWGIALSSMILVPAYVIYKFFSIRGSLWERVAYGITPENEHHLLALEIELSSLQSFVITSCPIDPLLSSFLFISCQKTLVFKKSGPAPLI
Sodium-dependent serotonin transporter, sequence (P31652 whole entry): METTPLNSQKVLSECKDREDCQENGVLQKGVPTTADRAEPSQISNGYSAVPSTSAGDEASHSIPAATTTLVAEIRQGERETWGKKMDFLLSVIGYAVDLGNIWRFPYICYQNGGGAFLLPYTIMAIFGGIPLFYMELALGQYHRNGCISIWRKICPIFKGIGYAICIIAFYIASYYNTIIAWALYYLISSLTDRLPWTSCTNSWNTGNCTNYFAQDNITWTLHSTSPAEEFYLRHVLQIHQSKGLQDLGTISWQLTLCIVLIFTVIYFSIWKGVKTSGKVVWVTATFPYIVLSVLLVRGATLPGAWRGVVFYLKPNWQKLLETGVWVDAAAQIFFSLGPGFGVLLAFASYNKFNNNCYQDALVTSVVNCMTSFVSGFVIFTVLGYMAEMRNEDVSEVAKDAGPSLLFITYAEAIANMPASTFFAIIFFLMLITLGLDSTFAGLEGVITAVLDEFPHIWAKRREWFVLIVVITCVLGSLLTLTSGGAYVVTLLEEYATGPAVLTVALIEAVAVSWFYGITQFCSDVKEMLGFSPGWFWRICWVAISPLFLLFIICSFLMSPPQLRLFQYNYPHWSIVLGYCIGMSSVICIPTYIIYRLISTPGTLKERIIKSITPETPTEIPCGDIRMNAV
Sodium-dependent dopamine transporter, sequence (P23977 whole entry): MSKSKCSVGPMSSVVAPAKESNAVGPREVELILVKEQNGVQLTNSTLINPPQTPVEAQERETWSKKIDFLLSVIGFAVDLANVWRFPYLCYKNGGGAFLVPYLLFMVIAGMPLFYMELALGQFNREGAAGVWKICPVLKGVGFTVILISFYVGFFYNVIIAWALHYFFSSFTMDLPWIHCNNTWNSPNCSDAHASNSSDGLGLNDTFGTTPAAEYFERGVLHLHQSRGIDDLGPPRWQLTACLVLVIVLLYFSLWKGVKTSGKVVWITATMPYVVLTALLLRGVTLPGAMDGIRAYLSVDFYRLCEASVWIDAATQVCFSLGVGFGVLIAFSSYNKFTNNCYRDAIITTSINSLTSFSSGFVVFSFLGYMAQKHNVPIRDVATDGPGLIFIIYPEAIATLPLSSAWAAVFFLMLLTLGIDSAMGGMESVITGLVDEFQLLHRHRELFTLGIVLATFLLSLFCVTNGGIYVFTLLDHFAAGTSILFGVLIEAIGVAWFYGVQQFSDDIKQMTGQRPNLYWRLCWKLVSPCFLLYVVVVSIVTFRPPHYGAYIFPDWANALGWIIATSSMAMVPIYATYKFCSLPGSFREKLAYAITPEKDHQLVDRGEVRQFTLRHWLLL

Compound | Ki [1] | Ki [2] | Ki [3] | Ki [4]
CCCCc1cccc(N2[C@@H]3CC[C@H]2C[C@H](OC(c2ccc(Cl)cc2)c2ccc(Cl)cc2)C3)c1 | 0.085 µM | 4.95 µM | 0.659 µM | 3.73 µM
C=CCN1C2CCC1CC(OC(c1ccc(Cl)cc1)c1ccc(Cl)cc1)C2 (centres undefined) | 0.0546 µM | 4.14 µM | 0.568 µM | 0.127 µM
C=CCN1C2CCC1CC(OC(c1ccccc1)c1ccc(Cl)cc1)C2 (centres undefined) | 0.0842 µM | 4.72 µM | 2.33 µM | 0.127 µM
Clc1cccc(C(OC2CC3CCC(C2)N3Cc2ccccc2)c2ccccc2)c1 (centres undefined) | 0.191 µM | 6.46 µM | 1.68 µM | 0.674 µM
CCCCc1cccc(N2[C@@H]3CC[C@H]2C[C@H](OC(c2ccccc2)c2ccc(Cl)cc2)C3)c1 (some centres undefined) | 0.0533 µM | 2.32 µM | 0.737 µM | 1.43 µM
CCCCc1cccc(N2C3CCC2CC(OC(c2ccccc2)c2cccc(Cl)c2)C3)c1 (centres undefined) | 0.153 µM | 1.47 µM | 0.591 µM | 0.564 µM
Clc1ccc(C(OC2CC3CCC(C2)N3)c2ccccc2)cc1 (centres undefined) | 0.0368 µM | 1.01 µM | 1.32 µM | 0.0955 µM
C=CCN1C2CCC1CC(OC(c1ccccc1)c1cccc(Cl)c1)C2 (centres undefined) | 0.0336 µM | 1.23 µM | 1.2 µM | 0.0697 µM
Clc1ccc(C(OC2CC3CCC(C2)N3Cc2ccccc2)c2ccc(Cl)cc2)cc1 (centres undefined) | 0.399 µM | 7.66 µM | 3.61 µM | 8.63 µM
CCCc1cccc(N2[C@H]3CC[C@]2(C)C[C@@H](OC(c2ccccc2)c2ccc(Cl)cc2)C3)c1 (some centres undefined) | 0.148 µM | 10.3 µM | 0.302 µM | 0.397 µM
CCCc1cccc(N2[C@@H]3CC[C@H]2C[C@H](OC(c2ccc(Cl)cc2)c2ccc(Cl)cc2)C3)c1 | 0.158 µM | 19.8 µM | 0.585 µM | 3.05 µM
CCCc1cccc(N2[C@@H]3CC[C@H]2C[C@H](OC(c2ccccc2)c2cccc(Cl)c2)C3)c1 (some centres undefined) | 0.101 µM | 1.81 µM | 0.429 µM | 0.337 µM
Clc1cccc(C(OC2CC3CCC(C2)N3)c2ccccc2)c1 (centres undefined) | 0.0262 µM | 0.508 µM | 2.1 µM | 0.0917 µM
CN1[C@@H]2CC[C@H]1C[C@@H](OC(c1ccccc1)c1cccc(Cl)c1)C2 (some centres undefined) |  | 0.451 µM | 0.258 µM | 
Clc1ccc(C(OC2CC3CCC(C2)N3)c2ccc(Cl)cc2)cc1 (centres undefined) |  | 6.04 µM | 0.727 µM | 0.649 µM
Clc1ccc(C(OC2CC3CCC(C2)N3Cc2ccccc2)c2ccccc2)cc1 (centres undefined) | 0.365 µM | 13 µM | 3.53 µM | 2.56 µM
CN1C2CCC1CC(OC(c1ccccc1)c1ccc(Cl)cc1)C2 (centres undefined) |  | 1.47 µM | 5.12 µM | 0.0079 µM
